Test results from patent publication US9499519B2, “Fused pyrimidine compounds and use thereof” (Medivation Technologies, Inc., priority 2012, dated 2016).

How the values were obtained:
Assay type in all cases: biochemical
[1] = molecular target: c-Met (Homo sapiens, UniProt P08581); experiment: HotSpot kinase assay: c-Met; settings: 100 nM compound, read-out: % Enzyme Inhibition @ 100 nM c-MET
Method: (§1) Kinase assays were performed using additional compounds against a panel of 4 kinases: AXL; c-Met; c-Mer; and Trk C. Each compound was tested at a concentration of 0.1 M in single duplicate mode against the 4 kinases. Compounds were prepared as 10 mM stock solutions in DMSO prior to use in the assay. […] IC50 values and curve fits were obtained using Prism (GraphPad Software).
(§2) The screening was performed using the “HotSpot” assay platform. The assay measures the conversion of a peptide substrate to ^33P-labelled phosphorylated product. Briefly, specific kinase/substrate pairs along with required cofactors were prepared in reaction buffer. Specifically, the substrate was prepared in reaction buffer (20 mM Hepes, pH 7.5; 10 mM MgCl2; 1 mM EGTA; 0.02% Brij35; 0.02 mg/mL BSA; 0.1 mM Na3VO4; 2 mM DTT; 1% DMSO), followed by delivery of any required cofactor to the resulting substrate solution. The corresponding kinase was delivered into the substrate solution and the reaction mixture was mixed gently. Compound was delivered into the reaction mixture, followed 15-20 minutes later by addition of a mixture of ATP (Sigma, St. Louis Mo.) and ^33P ATP (specific activity 0.01 μCi/μL final; Perkin Elmer, Waltham, Mass.) to a final concentration of 10 μM-30 μM to initiate the reaction. […] The percent of enzyme inhibition was calculated based on the percent of remaining kinase activity.

[2] = molecular target: T1, AXL (Homo sapiens, UniProt P30530); experiment: HotSpot kinase assay: AXL; settings: 100 nM compound, read-out: % Enzyme Inhibition @ 100 nM AXL
T1 sequence (P30530 26-894): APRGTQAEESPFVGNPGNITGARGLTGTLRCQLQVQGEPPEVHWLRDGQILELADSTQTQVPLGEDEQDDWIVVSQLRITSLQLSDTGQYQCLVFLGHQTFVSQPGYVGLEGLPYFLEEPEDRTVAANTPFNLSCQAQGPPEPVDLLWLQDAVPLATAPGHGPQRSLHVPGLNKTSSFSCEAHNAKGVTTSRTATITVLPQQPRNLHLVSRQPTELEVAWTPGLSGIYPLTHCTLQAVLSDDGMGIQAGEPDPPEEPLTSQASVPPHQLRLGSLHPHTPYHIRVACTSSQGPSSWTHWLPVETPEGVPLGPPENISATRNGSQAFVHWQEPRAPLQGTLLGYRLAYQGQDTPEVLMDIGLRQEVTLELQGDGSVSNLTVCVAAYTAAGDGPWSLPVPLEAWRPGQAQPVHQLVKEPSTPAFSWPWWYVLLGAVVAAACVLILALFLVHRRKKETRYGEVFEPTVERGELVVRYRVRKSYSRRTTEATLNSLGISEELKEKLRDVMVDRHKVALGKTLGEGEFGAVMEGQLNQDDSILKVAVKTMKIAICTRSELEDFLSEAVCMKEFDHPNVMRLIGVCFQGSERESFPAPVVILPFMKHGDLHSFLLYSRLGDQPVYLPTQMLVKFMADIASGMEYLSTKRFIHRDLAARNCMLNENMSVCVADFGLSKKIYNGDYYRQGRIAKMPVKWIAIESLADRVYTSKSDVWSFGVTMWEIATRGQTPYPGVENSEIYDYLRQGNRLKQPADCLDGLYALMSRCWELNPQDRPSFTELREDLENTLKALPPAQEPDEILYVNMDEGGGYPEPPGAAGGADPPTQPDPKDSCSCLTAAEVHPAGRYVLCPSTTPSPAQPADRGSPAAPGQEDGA
Method: as §1, §2

[3] = molecular target: Trk C (Homo sapiens, UniProt Q16288); experiment: HotSpot kinase assay: Trk C; settings: 100 nM compound, HotSpot; for inhibition at 0.1 µM: read-out: % Enzyme Inhibition @ 100 nM Trk C
Chain of Trk C (Q16288 32-839): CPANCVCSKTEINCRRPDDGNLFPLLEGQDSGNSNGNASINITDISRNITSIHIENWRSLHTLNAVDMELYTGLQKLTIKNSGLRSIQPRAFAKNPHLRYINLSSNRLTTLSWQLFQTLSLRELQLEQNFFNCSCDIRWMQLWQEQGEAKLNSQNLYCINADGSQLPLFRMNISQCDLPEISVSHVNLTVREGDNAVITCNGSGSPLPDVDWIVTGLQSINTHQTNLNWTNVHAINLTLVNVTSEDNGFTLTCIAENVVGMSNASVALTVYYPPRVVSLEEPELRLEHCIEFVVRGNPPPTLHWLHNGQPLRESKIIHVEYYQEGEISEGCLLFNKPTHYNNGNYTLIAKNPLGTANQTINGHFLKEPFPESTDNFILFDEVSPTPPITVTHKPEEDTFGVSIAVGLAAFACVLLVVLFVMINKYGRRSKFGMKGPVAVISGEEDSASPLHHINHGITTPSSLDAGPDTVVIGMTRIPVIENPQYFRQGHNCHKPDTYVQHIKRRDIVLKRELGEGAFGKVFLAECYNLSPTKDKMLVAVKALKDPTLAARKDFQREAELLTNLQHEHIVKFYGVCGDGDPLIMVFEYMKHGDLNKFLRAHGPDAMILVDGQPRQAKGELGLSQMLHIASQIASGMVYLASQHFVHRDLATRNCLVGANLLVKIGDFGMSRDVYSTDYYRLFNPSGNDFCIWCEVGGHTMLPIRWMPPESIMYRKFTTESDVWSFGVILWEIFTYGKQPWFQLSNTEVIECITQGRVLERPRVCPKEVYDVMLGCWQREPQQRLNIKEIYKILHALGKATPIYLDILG
Method: (§3) Each compound was tested at a concentration of 0.1 μM in single duplicate mode against the 3 kinases. Compounds were prepared as 10 mM stock solutions in DMSO prior to use in the assay. […] IC50 values and curve fits were obtained using Prism (GraphPad Software).
as §2, §1

[4] = molecular target: T2, c-Mer (Homo sapiens, UniProt Q12866); experiment: HotSpot kinase assay: c-Mer; settings: 100 nM compound, read-out: % Enzyme Inhibition @ 100 nM c-MER
T2 sequence (Q12866 21-999): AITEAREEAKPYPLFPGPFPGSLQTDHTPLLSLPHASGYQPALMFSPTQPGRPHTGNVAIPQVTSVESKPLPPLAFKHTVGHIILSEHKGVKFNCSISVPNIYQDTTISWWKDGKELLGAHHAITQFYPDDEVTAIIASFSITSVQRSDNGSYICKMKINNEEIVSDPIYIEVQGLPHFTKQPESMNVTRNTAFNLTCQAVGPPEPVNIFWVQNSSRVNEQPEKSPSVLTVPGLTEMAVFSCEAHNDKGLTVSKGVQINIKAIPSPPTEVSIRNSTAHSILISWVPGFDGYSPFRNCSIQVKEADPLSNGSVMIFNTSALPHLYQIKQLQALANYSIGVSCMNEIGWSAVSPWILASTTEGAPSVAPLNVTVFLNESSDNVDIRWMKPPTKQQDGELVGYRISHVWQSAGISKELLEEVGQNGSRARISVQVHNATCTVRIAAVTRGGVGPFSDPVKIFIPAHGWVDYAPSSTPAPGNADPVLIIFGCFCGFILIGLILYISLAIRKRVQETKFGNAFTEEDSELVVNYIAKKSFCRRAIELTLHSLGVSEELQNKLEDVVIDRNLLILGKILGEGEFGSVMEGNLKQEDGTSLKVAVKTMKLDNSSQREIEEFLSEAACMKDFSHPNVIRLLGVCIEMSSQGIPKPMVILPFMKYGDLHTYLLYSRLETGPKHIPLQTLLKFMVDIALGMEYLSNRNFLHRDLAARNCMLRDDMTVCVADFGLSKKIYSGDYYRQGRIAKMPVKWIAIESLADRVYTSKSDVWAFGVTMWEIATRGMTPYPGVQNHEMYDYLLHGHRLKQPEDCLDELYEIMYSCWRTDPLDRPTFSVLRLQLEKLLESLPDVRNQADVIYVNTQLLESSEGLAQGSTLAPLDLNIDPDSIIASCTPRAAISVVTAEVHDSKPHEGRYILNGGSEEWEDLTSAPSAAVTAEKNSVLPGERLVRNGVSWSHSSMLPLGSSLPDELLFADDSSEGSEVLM
Method: as §1, §2

[5] = molecular target: Trk B (Homo sapiens, UniProt Q16620); experiment: HotSpot kinase assay: Trk B; settings: 100 nM compound; for inhibition at 0.1 µM: read-out: % Enzyme Inhibition @ 100 nM Trk B
Chain of Trk B (Q16620 32-822): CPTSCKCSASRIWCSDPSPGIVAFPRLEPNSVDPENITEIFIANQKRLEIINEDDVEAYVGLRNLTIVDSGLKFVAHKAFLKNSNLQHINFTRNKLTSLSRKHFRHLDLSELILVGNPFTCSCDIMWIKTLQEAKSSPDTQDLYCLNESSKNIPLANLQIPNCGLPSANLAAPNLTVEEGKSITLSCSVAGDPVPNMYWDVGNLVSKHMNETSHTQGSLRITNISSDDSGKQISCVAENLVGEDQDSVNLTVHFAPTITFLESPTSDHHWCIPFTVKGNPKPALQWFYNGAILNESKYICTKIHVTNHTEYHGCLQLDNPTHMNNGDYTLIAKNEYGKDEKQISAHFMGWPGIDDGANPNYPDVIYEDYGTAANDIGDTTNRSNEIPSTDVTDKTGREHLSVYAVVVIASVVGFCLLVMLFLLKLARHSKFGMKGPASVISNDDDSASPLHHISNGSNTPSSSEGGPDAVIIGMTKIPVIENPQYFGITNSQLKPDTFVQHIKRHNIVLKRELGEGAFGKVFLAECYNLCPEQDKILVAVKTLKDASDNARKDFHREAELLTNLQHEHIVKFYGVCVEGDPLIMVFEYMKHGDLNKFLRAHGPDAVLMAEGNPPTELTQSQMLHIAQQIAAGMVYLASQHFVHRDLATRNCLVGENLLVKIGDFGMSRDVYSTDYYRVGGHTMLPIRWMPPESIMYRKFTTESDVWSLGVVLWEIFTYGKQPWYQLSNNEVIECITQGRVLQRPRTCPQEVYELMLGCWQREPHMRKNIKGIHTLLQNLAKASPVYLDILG
Method: as §3, §2

[6] = molecular target: T3, IGF-1R (Homo sapiens, UniProt P08069); experiment: In vitro IGF-1R enzymatic assay (ADP-Glo kinase assay); settings: activated IGF-1R, 1 μM, in duplicate; read-out: inhibition of binding
T3 construct: purchased Millipore 14-802
T3 sequence (P08069 31-1367): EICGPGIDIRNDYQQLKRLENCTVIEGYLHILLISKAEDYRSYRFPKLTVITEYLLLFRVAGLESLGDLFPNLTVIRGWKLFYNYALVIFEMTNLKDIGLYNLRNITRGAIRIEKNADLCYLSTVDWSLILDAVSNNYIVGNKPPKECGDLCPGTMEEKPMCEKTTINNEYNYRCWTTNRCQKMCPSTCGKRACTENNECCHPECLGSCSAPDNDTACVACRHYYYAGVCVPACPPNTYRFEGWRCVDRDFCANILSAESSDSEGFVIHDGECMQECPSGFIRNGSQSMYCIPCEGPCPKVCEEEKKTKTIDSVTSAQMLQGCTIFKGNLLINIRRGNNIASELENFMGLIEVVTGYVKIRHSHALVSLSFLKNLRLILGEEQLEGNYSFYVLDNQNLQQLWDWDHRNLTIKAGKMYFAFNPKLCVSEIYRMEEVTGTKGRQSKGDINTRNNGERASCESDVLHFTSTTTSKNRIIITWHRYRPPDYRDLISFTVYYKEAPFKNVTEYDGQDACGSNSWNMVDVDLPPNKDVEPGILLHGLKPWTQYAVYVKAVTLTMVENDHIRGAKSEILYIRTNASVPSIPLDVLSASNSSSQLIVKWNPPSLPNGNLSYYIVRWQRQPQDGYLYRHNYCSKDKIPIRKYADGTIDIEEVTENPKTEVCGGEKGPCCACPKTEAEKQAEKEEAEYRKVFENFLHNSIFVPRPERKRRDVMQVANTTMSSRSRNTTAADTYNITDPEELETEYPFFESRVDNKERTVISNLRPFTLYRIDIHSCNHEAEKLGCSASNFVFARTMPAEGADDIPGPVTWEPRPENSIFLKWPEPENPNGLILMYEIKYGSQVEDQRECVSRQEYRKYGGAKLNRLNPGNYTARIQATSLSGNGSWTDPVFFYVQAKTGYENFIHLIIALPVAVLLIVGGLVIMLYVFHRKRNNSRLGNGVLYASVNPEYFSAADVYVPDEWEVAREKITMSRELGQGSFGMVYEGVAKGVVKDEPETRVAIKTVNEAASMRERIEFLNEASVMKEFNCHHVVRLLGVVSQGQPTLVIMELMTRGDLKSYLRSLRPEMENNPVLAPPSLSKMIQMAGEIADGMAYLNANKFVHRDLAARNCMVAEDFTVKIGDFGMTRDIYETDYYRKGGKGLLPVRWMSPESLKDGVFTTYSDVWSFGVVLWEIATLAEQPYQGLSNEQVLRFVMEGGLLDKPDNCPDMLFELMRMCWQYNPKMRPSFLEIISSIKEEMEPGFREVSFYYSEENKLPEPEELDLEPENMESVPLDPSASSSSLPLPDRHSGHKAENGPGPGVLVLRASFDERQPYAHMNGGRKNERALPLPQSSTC
Method: IC50 values of the compounds of the invention against IGF-1R and IR were measured in vitro using an ADP-Glo kinase assay Kit (Promega). […] Kinase reactions in both assays were conducted at 30° C. for 20 min with increasing concentrations of compounds of the invention.
Additional compounds of the invention were screened against activated IGF-1R.

[7] = molecular target: Trk A (Homo sapiens, UniProt P04629); experiment: HotSpot kinase assay: Trk A; settings: 100 nM compound; for inhibition at 0.1 µM: read-out: % Enzyme Inhibition @ 100 nM Trk A
Chain of Trk A (P04629 33-796): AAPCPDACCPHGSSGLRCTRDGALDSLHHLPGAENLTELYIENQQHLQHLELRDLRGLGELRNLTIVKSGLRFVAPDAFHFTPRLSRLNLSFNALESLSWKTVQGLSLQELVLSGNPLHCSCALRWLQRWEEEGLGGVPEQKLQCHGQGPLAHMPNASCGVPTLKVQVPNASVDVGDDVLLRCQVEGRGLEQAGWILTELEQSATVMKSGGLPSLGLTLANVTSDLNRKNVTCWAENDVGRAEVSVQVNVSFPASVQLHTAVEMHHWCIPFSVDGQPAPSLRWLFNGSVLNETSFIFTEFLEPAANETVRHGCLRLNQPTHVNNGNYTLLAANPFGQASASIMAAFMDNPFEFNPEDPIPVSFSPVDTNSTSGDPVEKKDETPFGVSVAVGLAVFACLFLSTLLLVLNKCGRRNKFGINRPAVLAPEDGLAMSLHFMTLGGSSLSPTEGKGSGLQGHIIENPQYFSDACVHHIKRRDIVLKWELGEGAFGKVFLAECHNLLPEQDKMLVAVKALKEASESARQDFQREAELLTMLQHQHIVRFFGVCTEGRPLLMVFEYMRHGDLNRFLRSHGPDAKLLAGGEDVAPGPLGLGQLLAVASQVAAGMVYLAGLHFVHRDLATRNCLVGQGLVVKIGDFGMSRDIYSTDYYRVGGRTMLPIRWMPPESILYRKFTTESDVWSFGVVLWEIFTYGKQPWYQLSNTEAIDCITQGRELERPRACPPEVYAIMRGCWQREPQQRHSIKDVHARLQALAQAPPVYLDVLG
Method: as §1, with “of 3” for “of 4”, “kinases: Trk A; Trk B;” for “kinases: AXL; c-Met; c-Mer;”, “0.1 μM” for “0.1 M”, “the 3” for “the 4”, “Software). […]” for “Software).”
The screening was performed using the “HotSpot” assay platform. The assay measures the conversion of a peptide substrate to ^33P-labelled phosphorylated product. Briefly, specific kinase/substrate pairs along with required cofactors were prepared in reaction buffer. Specifically, the substrate was prepared in reaction buffer (20 mM Hepes, pH 7.5; 10 mM MgCl2; 1 mM EGTA; 0.02% Brij35; 0.02 mg/mL BSA; 0.1 mM Na3VO4; 2 mM DTT; 1% DMSO), followed by delivery of any required cofactor to the resulting substrate solution. The corresponding kinase was delivered into the substrate solution and the reaction mixture was mixed gently. Compound was delivered into the reaction mixture, followed 15-20 minutes later by addition of a mixture of ATP (Sigma, St. Louis Mo.) and ^33P ATP (specific activity 0.01 μCi/μL final; Perkin Elmer, Waltham, Mass.) to a final concentration of 10 μM-30 μM to initiate the reaction. Reactions were carried out at room temperature for 120 minutes, followed by spotting of the reactions onto P81 ion exchange filter paper (Whatman #3698-915; Whatman Inc., Piscataway, N.J.). Unbound phosphate was removed by extensive washing of filters in 0.75% phosphoric acid. […] The percent of enzyme inhibition was calculated based on the percent of remaining kinase activity.

[8] = molecular target: T4, IR (Homo sapiens, UniProt P06213); experiment: In vitro IR enzymatic assay (ADP-Glo kinase assay); settings: activated IR, in duplicate, read-out: inhibition of binding
T4 construct: purchased Millipore 14-803
T4 sequence (P06213 28-1382): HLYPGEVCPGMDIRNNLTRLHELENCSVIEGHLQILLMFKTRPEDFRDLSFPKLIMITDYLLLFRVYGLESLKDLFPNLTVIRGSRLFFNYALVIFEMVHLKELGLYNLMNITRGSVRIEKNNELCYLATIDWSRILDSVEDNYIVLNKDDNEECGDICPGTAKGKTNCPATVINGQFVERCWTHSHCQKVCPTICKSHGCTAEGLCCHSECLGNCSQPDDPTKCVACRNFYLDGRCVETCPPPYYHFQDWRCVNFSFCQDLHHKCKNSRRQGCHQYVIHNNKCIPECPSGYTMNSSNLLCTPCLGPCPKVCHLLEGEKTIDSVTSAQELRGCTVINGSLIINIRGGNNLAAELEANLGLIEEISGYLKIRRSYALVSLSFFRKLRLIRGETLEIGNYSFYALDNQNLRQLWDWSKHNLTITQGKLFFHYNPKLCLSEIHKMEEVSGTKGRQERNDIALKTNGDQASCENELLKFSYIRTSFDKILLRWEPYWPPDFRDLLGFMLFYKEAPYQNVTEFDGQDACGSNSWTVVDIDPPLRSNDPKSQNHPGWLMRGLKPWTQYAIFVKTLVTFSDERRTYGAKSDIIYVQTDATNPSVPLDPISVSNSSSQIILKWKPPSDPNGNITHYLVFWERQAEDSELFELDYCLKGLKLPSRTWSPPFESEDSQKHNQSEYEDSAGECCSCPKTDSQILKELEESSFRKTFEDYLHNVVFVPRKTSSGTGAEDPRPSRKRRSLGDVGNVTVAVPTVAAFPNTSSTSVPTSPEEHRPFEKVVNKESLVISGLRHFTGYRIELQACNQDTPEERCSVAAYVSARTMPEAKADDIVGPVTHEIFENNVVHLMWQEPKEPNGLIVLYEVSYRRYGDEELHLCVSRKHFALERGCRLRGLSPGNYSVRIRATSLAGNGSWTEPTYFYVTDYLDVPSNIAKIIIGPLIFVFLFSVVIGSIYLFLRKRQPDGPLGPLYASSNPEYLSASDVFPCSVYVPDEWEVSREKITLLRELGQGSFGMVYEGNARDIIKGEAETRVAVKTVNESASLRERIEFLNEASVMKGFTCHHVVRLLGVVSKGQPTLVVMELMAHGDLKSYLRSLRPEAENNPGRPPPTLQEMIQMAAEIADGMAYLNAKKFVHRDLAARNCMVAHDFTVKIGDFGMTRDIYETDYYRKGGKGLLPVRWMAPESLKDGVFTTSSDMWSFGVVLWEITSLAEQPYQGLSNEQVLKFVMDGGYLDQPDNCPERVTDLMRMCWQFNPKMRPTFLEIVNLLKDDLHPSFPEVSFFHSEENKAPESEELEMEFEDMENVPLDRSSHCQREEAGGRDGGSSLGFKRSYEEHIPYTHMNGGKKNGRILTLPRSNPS

Compound | inhibition at 0.1 µM [1] [%] | inhibition at 0.1 µM [2] [%] | inhibition at 0.1 µM [3] [%] | inhibition at 0.1 µM [4] [%] | inhibition at 0.1 µM [5] [%] | inhibition at 1 µM [6] [%] | inhibition at 0.1 µM [7] [%] | inhibition at 1 µM [8] [%] | % Enzyme Inhibition @ 100 nM Trk B [5] | % Enzyme Inhibition @ 100 nM Trk A [7] | % Enzyme Inhibition @ 100 nM Trk C [3]
O=C(Nc1ccc(F)nc1)C1CCCN1c1nc2c(c(Nc3ccc(=O)[nH]n3)n1)CCC2 (stereo not shown) [Compound 101b, N-(6-fluoropyridin-3-yl)-1-(4-(6-oxo-1,6-dihydropyridazin-3-ylamino)-6,7-dihydro-5H-cyclopenta[d]pyrimidin-2-yl)pyrrolidine-2-carboxamide] | < 39 | < 39 | < 39 | < 39 |  |  |  |  |  |  | 
O=C(Nc1ccc(F)nc1)C1CCCN1c1nc2c(c(Nc3ccccn3)n1)CCC2 (stereo not shown) [Compound 102a, N-(6-fluoropyridin-3-yl)-1-(4-(pyridin-2-ylamino)-6,7-dihydro-5H-cyclopenta[d]pyrimidin-2-yl)pyrrolidine-2-carboxamide] | < 39 | < 39 | < 39 | < 39 |  |  |  |  |  |  | 
O=C(Nc1nccs1)C1CCCN1c1nc2c(c(Nc3ncccn3)n1)CCC2 (stereo not shown) [Compound 105a, 1-(4-(pyrimidin-2-ylamino)-6,7-dihydro-5H-cyclopenta[d]pyrimidin-2-yl)-N-(thiazol-2-yl)pyrrolidine-2-carboxamide] | < 39 | < 39 | < 39 | < 39 |  |  |  |  |  |  | 
O=C(C1CCCN1c1nc2c(c(Nc3cc(C4CCCC4)[nH]n3)n1)CCC2)N1CCCC1 (stereo not shown) [Compound 112a, (1-(4-(5-cyclopentyl-1H-pyrazol-3-ylamino)-6,7-dihydro-5H-cyclopenta[d]pyrimidin-2-yl)pyrrolidin-2-yl)(pyrrolidin-1-yl)methanone] |  |  | > 60 |  | > 60 | < 35 | > 60 | ≤ 40 |  |  | 
O=C(C1CCCN1c1nc2c(c(Nc3cc(C4CCCCC4)[nH]n3)n1)CCC2)N1CCCCC1 (stereo not shown) [Compound 113a, (1-(4-(5-cyclohexyl-1H-pyrazol-3-ylamino)-6,7-dihydro-5H-cyclopenta[d]pyrimidin-2-yl)pyrrolidin-2-yl)(piperidin-1-yl)methanone] |  |  |  |  |  | < 35 |  | ≤ 40 | + (Low (39% or lower inhibition, +)) | ++ (Medium (40 to 59% inhibition, ++)) | ++ (Medium (40 to 59% inhibition, ++))
CN(C)C(=O)C1CCCN1c1nc2c(c(Nc3cc(C4CCCCC4)[nH]n3)n1)CCC2 (stereo not shown) [Compound 114a, 1-(4-(5-cyclohexyl-1H-pyrazol-3-ylamino)-6,7-dihydro-5H-cyclopenta[d]pyrimidin-2-yl)-N,N-dimethylpyrrolidine-2-carboxamide] |  |  |  |  |  | < 35 |  | ≤ 40 | ++ (Medium (40 to 59% inhibition, ++)) | ++ (Medium (40 to 59% inhibition, ++)) | ++ (Medium (40 to 59% inhibition, ++))
CN(C)C(=O)C1CCCN1c1nc2c(c(Nc3cc(C4CCCC4)[nH]n3)n1)CCC2 (stereo not shown) [Compound 115a, 1-(4-(5-cyclopentyl-1H-pyrazol-3-ylamino)-6,7-dihydro-5H-cyclopenta[d]pyrimidin-2-yl)-N,N-dimethylpyrrolidine-2-carboxamide] |  |  | > 60 |  | > 60 | < 35 | < 39 | ≤ 40 |  |  | 
CCN(CC)C(=O)C1CCCN1c1nc2c(c(Nc3cc(C4CCCC4)[nH]n3)n1)CCC2 (stereo not shown) [Compound 116a, 1-(4-(5-cyclopenxyl-1H-pyrazol-3-ylamino)-6,7-dihydro-5H-cyclopenta[d]pyrimidin-2-yl)-N,N-diethylpyrrolidine-2-carboxamide] |  |  | > 60 |  | > 60 | < 35 | < 39 | ≤ 40 |  |  | 
